Measured values reported in patent US9777003B2, “Tricyclic heterocycles as bet protein inhibitors” (Incyte Corporation, priority 2013, dated 2017).
Structures can show the parent of a compound that is named as a salt. Blank lines part the entries; values can stand above or below the molecule they belong to.

Experiments:
[1] = target: BRD4-BD2 (Homo sapiens (Human), UniProt O60885); test: BRD4 AlphaScreen assay, BRD4-BD2; assay type: binding; details: biotin-labeled tetra-acetylated histone H4 peptide, 75 min, room temperature, read-out: BRD4 BD-2 enzyme IC50
Method in brief: (§1)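 IC50 values from percent-control versus log inhibitor fits after bead-based proximity readout (streptavidin donor, GSH acceptor, 75 min dark). Reactions: 75 min RT, pH 7.4 HEPES, biotin-H4Ac4 peptide 50 nM, with BD1 at 3.8 nM (DMSO 1.25%) and BD2 at 20 nM (DMSO 0.83%).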

[2] = target: BRD4-BD1 (Homo sapiens (Human), UniProt O60885); test: BRD4 AlphaScreen assay, BRD4-BD1; assay type: binding; details: biotin-labeled tetra-acetylated histone H4 peptide, 75 min, room temperature, read-out: BRD4 BD-1 enzyme IC50
Method in brief: as §1

SMILES: Cc1nnc2ccc3c(cc(-c4ccn(CCCO)n4)n3Cc3cccc(Cl)c3)n12 [Example 173, 3-{3-[6-(3-Chlorobenzyl)-1-methyl-6H-pyrrolo[2,3-e][1,2,4]triazolo[4,3-a]pyridin-7-yl]-1H-pyrazol-1-yl}propan-1-ol Trifluoroacetate Salt]
- IC50 [1]: ≤ 100 nM
- IC50 [2]: ≤ 100 nM

SMILES: Cc1cc2c(ccc3nnc(C)n32)n1Cc1cccc(CN2CCC2)c1 [Example 28, 6-[3-(azetidin-1-ylmethyl)benzyl]-1,7-dimethyl-6H-pyrrolo[2,3-e][1,2,4]triazolo[4,3-a]pyridine]
- IC50 [1]: ≤ 100 nM
- IC50 [2]: ≤ 100 nM

SMILES: Cc1nnc2ccc3c(cc(C(=O)N[C@H]4C[C@@H](C#N)C4)n3Cc3ccccc3)n12 [Example 101, 6-benzyl-N-(cis-3-cyanocyclobutyl)-1-methyl-6H-pyrrolo[2,3-e][1,2,4]triazolo[4,3-a]pyridine-7-carboxamide]
- IC50 [1]: 100 to 1000 nM
- IC50 [2]: 100 to 1000 nM

SMILES: Cc1nnc2ccc3c(cc(-c4ccn(CCC(=O)N5CCOCC5)n4)n3Cc3cccc(Cl)c3)n12 [Example 169, 6-(3-Chlorobenzyl)-1-methyl-7-[1-(3-morpholin-4-yl-3-oxopropyl)-1H-pyrazol-3-yl]-6H-pyrrolo[2,3-e][1,2,4]triazolo[4,3-a]pyridine Trifluoroacetate Salt]
- IC50 [1]: ≤ 100 nM
- IC50 [2]: ≤ 100 nM

SMILES: Cc1nnc2ccc3c(cc(-c4ccn(CCC#N)n4)n3Cc3cccc(CN4CCC4)c3)n12 [Example 183, 3-(3-{6-[3-(Azetidin-1-ylmethyl)benzyl]-1-methyl-6H-pyrrolo[2,3-e][1,2,4]triazolo[4,3-a]pyridin-7-yl}-1H-pyrazol-1-yl)propanenitrile bis(trifluoroacetate) Salt]
- IC50 [1]: ≤ 100 nM
- IC50 [2]: ≤ 100 nM

SMILES: Cc1nnc2ccc3c(cc(C(=O)NC4CN(C)C4)n3Cc3cccc(Cl)c3)n12 [Example 118, 6-(3-Chlorobenzyl)-1-methyl-N-(1-methylazetidin-3-yl)-6H-pyrrolo[2,3-e][1,2,4]triazolo[4,3-a]pyridine-7-carboxamide bis(trifluoroacetate) Salt]
- IC50 [1]: 100 to 1000 nM
- IC50 [2]: 100 to 1000 nM

SMILES: Cc1nnc2ccc3c(cc(-c4c[nH]cn4)n3Cc3cccc(Cl)c3)n12 [Example 172, 6-(3-Chlorobenzyl)-7-(1H-imidazol-4-yl)-1-methyl-6H-pyrrolo[2,3-e][1,2,4]triazolo[4,3-a]pyridine bis(trifluoroacetate) Salt]
- IC50 [1]: ≤ 100 nM
- IC50 [2]: ≤ 100 nM

SMILES: Cc1nnc2ccc3c(cc(-c4ncco4)n3Cc3cc(Cl)cc(CN4CCCC4)c3)n12 [Example 197, 6-[3-Chloro-5-(pyrrolidin-1-ylmethyl)benzyl]-1-methyl-7-(1,3-oxazol-2-yl)-6H-pyrrolo[2,3-e][1,2,4]triazolo[4,3-a]pyridine bis(trifluoroacetate) Salt]
- IC50 [1]: ≤ 100 nM
- IC50 [2]: ≤ 100 nM

SMILES: Cc1nnc2ccc3c(cc(-c4cn[nH]c4)n3Cc3ccccc3)n12 [Example 63, 6-benzyl-1-methyl-7-(1H-pyrazol-4-yl)-6H-pyrrolo[2,3-e][1,2,4]triazolo[4,3-a]pyridine]
- IC50 [1]: ≤ 100 nM
- IC50 [2]: ≤ 100 nM

SMILES: Cc1cc2c(ccc3nnc(C)n32)n1Cc1ccc(CN2CC(O)C2)cc1 [Example 52, 1-{4-[(1,7-dimethyl-6H-pyrrolo[2,3-e][1,2,4]triazolo[4,3-a]pyridin-6-yl)methyl]benzyl}azetidin-3-ol]
- IC50 [1]: 100 to 1000 nM
- IC50 [2]: 100 to 1000 nM

SMILES: CCn1ccc(-c2cc3c(ccc4nnc(C)n43)n2Cc2cc(Cl)cc(CN3CCC3)c2)n1 [Example 188, 6-(3-(Azetidin-1-ylmethyl)-5-chlorobenzyl)-7-(1-ethyl-1H-pyrazol-3-yl)-1-methyl-6H-pyrrolo[2,3-e][1,2,4]triazolo[4,3-a]pyridine tris(trifluoroacetate) Salt]
- IC50 [1]: ≤ 100 nM
- IC50 [2]: ≤ 100 nM

SMILES: Cc1cc2c(ccc3nnc(C)n32)n1Cc1cccc(CN2CCN(C)CC2)c1 [Example 47, 1,7-dimethyl-6-{3-[(4-methylpiperazin-1-yl)methyl]benzyl}-6H-pyrrolo[2,3-e][1,2,4]triazolo[4,3-a]pyridine]
- IC50 [1]: ≤ 100 nM
- IC50 [2]: 100 to 1000 nM

SMILES: Cc1nnc2ccc3c(cc(C(=O)NCCCO)n3Cc3cccc(Cl)c3)n12 [Example 127, 6-(3-Chlorobenzyl)-N-(3-hydroxypropyl)-1-methyl-6H-pyrrolo[2,3-e][1,2,4]triazolo[4,3-a]pyridine-7-carboxamide Trifluoroacetate Salt]
- IC50 [1]: ≤ 100 nM
- IC50 [2]: ≤ 100 nM

SMILES: Cc1nnc2ccc3c(cc(C(=O)N[C@H](C)C(F)(F)F)n3Cc3ccccc3)n12 [Example 86, 6-benzyl-1-methyl-N-[(1R)-2,2,2-trifluoro-1-methylethyl]-6H-pyrrolo[2,3-e][1,2,4]triazolo[4,3-a]pyridine-7-carboxamide]
- IC50 [1]: 100 to 1000 nM
- IC50 [2]: 100 to 1000 nM

SMILES: Cc1cc2c(ccc3nnc(C)n32)n1Cc1cccc(CO)c1 [Example 26, {3-[(1,7-dimethyl-6H-pyrrolo[2,3-e][1,2,4]triazolo[4,3-a]pyridin-6-yl)methyl]phenyl}methanol Trifluoroacetate Salt]
- IC50 [1]: ≤ 100 nM
- IC50 [2]: ≤ 100 nM

SMILES: Cc1nnc2ccc3c(cc(-c4ccccn4)n3Cc3ccccc3)n12 [Example 68, 6-benzyl-1-methyl-7-pyridin-2-yl-6H-pyrrolo[2,3-e][1,2,4]triazolo[4,3-a]pyridine]
- IC50 [1]: ≤ 100 nM
- IC50 [2]: 100 to 1000 nM

SMILES: Cc1cc2c(cc(Nc3ccn(C)n3)c3nnc(C)n32)n1Cc1ccccc1 [Example 202, 6-Benzyl-1,7-dimethyl-N-(1-methyl-1H-pyrazol-3-yl)-6H-pyrrolo[2,3-e][1,2,4]triazolo[4,3-a]pyridin-4-amine tris(trifluoroacetate) Salt]
- IC50 [1]: ≤ 100 nM
- IC50 [2]: ≤ 100 nM

SMILES: Cc1nnc2ccc3c(cc(C(=O)NCC4CC4)n3Cc3cccc(Cl)c3)n12 [Example 114, 6-(3-Chlorobenzyl)-N-(cyclopropylmethyl)-1-methyl-6H-pyrrolo[2,3-e][1,2,4]triazolo[4,3-a]pyridine-7-carboxamide Trifluoroacetate Salt]
- IC50 [1]: ≤ 100 nM
- IC50 [2]: ≤ 100 nM

SMILES: Cc1nnc2ccc3c(cc(-c4ccn(CCC(=O)N5CCN(C)CC5)n4)n3Cc3cccc(Cl)c3)n12 [Example 105, 6-(3-chlorobenzyl)-1-methyl-7-{1-[3-(4-methylpiperazin-1-yl)-3-oxopropyl]-1H-pyrazol-3-yl}-6H-pyrrolo[2,3-e][1,2,4]triazolo[4,3-a]pyridine]
- IC50 [1]: ≤ 100 nM
- IC50 [2]: ≤ 100 nM

Now from value to molecule:

- IC50 [1]: ≤ 100 nM
- IC50 [2]: ≤ 100 nM
SMILES: CCNC(=O)Nc1cc2c(cc(C)n2Cc2ccccc2)n2c(C)nnc12 [Example 249, 1-(6-Benzyl-1,7-dimethyl-6H-pyrrolo[2,3-e][1,2,4]triazolo[4,3-a]pyridin-4-yl)-3-ethylurea]

- IC50 [1]: ≤ 100 nM
- IC50 [2]: ≤ 100 nM
SMILES: CNCc1cccc(Cn2c(C)cc3c2ccc2nnc(C)n23)c1 [Example 41, 1-{3-[(1,7-dimethyl-6H-pyrrolo[2,3-e][1,2,4]triazolo[4,3-a]pyridin-6-yl)methyl]phenyl}-N-methylmethanamine]

- IC50 [1]: ≤ 100 nM
- IC50 [2]: ≤ 100 nM
SMILES: Cc1cc2c(cc(NC3CCN(C)CC3)c3nnc(C)n32)n1Cc1cccnc1 [Example 154, 1,7-dimethyl-N-(1-methylpiperidin-4-yl)-6-(pyridin-3-ylmethyl)-6H-pyrrolo[2,3-e][1,2,4]triazolo[4,3-a]pyridin-4-amine]

- IC50 [1]: ≤ 100 nM
- IC50 [2]: ≤ 100 nM
SMILES: Cc1cc2c(cc(NC(N)=O)c3nnc(C)n32)n1Cc1ccccc1F [Example 238, 1-(6-(2-Fluorobenzyl)-1,7-dimethyl-6H-pyrrolo[2,3-e][1,2,4]triazolo[4,3-a]pyridin-4-yl)urea]

- IC50 [1]: ≤ 100 nM
- IC50 [2]: 100 to 1000 nM
SMILES: CC(=O)Nc1cccc(Cn2c(C)cc3c2ccc2nnc(C)n23)c1 [Example 25, N-{3-[(1,7-dimethyl-6H-pyrrolo[2,3-e][1,2,4]triazolo[4,3-a]pyridin-6-yl)methyl]phenyl}acetamide Trifluoroacetate Salt]

- IC50 [1]: ≤ 100 nM
- IC50 [2]: ≤ 100 nM
SMILES: Cc1cc2c(cc(NC3CCN(C)C3)c3nnc(C)n32)n1Cc1ccccc1 (racemic) [Example 145, 6-benzyl-1,7-dimethyl-N-(1-methylpyrrolidin-3-yl)-6H-pyrrolo[2,3-e][1,2,4]triazolo[4,3-a]pyridin-4-amine bis(trifluoroacetate) Salt]

- IC50 [1]: ≤ 100 nM
- IC50 [2]: ≤ 100 nM
SMILES: Cc1cc2c(cc(Nc3ncc[nH]3)c3nnc(C)n32)n1Cc1ccccc1 [Example 253, 6-Benzyl-N-(1H-imidazol-2-yl)-1,7-dimethyl-6H-pyrrolo[2,3-e][1,2,4]triazolo[4,3-a]pyridin-4-amine]

- IC50 [1]: ≤ 100 nM
- IC50 [2]: ≤ 100 nM
SMILES: Cc1cc2c(cc(O)c3nnc(C)n32)n1Cc1ccccc1 [Example 204, 6-Benzyl-1,7-dimethyl-6H-pyrrolo[2,3-e][1,2,4]triazolo[4,3-a]pyridin-4-ol Trifluoroacetate Salt]

- IC50 [1]: ≤ 100 nM
- IC50 [2]: 100 to 1000 nM
SMILES: CNC(=O)c1cccc(Cn2c(C)cc3c2ccc2nnc(C)n23)c1 [Example 32, 3-[(1,7-dimethyl-6H-pyrrolo[2,3-e][1,2,4]triazolo[4,3-a]pyridin-6-yl)methyl]-N-methylbenzamide Trifluoroacetate Salt]

- IC50 [1]: ≤ 100 nM
- IC50 [2]: ≤ 100 nM
SMILES: Cc1cc2c(cc(Nc3cccnc3)c3nnc(C)n32)n1Cc1ccccc1 [Example 256, 6-Benzyl-1,7-dimethyl-N-(pyridin-3-yl)-6H-pyrrolo[2,3-e][1,2,4]triazolo[4,3-a]pyridin-4-amine]

- IC50 [1]: ≤ 100 nM
- IC50 [2]: ≤ 100 nM
SMILES: Cc1cc2c(cc(NC(N)=O)c3nnc(C)n32)n1Cc1c(F)cccc1F [Example 254, 1-(6-(2,6-Difluorobenzyl)-1,7-dimethyl-6H-pyrrolo[2,3-e][1,2,4]triazolo[4,3-a]pyridin-4-yl)urea]
